Experimental findings from publication PMC10338423, “Synthesis and preclinical evaluation of a novel fluorine-18 labeled small-molecule PET radiotracer for imaging of CXCR3 receptor in mouse models of atherosclerosis” (EJNMMI Research, 2023) are described below.

Structures are written as SMILES.

Series [1] has as its target T1, CXCR3 (Mus musculus, UniProt O88410).
T1 construct: tissue Jackson Laboratory (mice); host or cells: In vivo: atherosclerotic abdominal aorta and brown adipose tissue of ApoE KO mice (high-fat diet) and C57BL/6 control mice (normal diet)
T1 sequence (O88410 1-367): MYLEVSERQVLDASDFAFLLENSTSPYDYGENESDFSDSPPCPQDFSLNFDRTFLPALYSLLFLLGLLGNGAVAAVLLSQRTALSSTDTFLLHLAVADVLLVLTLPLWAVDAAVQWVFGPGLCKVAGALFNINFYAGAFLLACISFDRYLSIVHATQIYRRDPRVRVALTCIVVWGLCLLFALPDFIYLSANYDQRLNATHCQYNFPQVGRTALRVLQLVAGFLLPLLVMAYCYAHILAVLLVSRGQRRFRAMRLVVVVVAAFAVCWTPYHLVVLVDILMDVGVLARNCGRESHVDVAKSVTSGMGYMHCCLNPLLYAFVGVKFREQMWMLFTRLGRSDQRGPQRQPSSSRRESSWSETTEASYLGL
In words: PET/CT imaging, baseline and self-blocking, in C57BL/6 control mice on normal diet. It counts as in vivo. An excerpt:
(§1) [^18F]1 was further evaluated for reliability as a CXCR3 radiotracer using mouse models of atherosclerosis. For this purpose, we tested [^18F]1 in ApoE KO mice, a widely used murine model of atherosclerosis. Six-week-old ApoE KO male mice (N = 6) and C57BL/6 male control mice (i.e., a background strain of ApoE KO mouse, ApoE-wildtype control; N = 6) were purchased from Jackson Laboratory (Bar Harbor, ME). The ApoE KO mice were placed on a high-fat diet over 12 weeks to accelerate atherosclerosis development. […] At 12 weeks, PET/computed tomography (CT) studies were performed using both mice groups. Dynamic PET scans (90 min acquisition) were performed beginning 5 min after the intravenous injection of [^18F]1 followed by a ~ 10 min CT scan. Usually, one week after the baseline PET/CT scan, the corresponding blocking PET/CT scan was performed. This time, 1·HCl salt (5 mg/kg) was used as a blocking agent and intravenously injected 5 min before the radiotracer injection.
(§2) All animal studies were performed at the VA Biomolecular Imaging Center (VA BIC) at the Harry S. Truman Memorial Veterans’ Hospital (Columbia, MO). Six-week-old ApoE KO male mice and C57BL/6 control male mice were purchased from Jackson Laboratory. All mice were housed in the controlled vivarium during the studies. All ApoE KO mice were fed with high-fat chow that contained 42% fat, 34% of that contained unsaturated fat (TD.88137, Envigo, Indianapolis, IN), one week after the arrival and continued the feeding until the end of the study. The first PET/CT scans were performed 12 weeks after initiating the high-fat diet, and the second PET/CT scans that used 1·HCl as a blocking agent were performed at least one week after the first PET/CT scans. Meanwhile, C57BL/6 control mice were fed with normal chow over the same schedule to match with ApoE KO mice.
(§3) Maximum intensity micro-PET images were obtained on a Siemens INVEON small-animal PET/CT scanner (Siemens Medical Solutions USA, Inc., Malvern, PA). […] The micro-PET data was analyzed using Siemens Inveon Research Workplace, General Analysis software. […]

For series [2], the target named is T1, CXCR3. Kind of series: PET/CT imaging, baseline and self-blocking, in ApoE KO mice on high-fat diet. Type of series: in vivo.
Description: as §1, §2, §3

Series [3] is described as follows: Stability of formulated radiotracer (HPLC). Type of series: physicochemical. To be noted: formulated in 10% EtOH/0.9% saline containing 0.5% sodium ascorbate. Here is the method: The addition of AcOH and the high temperature was necessary for an improved RCC. A usual C18 SPE workup followed by semi-preparative reverse phase HPLC purification afforded [^18F]1 in RCY of 13 ± 2% (n = 10) at the end of synthesis (EOS). The semi-preparative HPLC chromatograms of [^18F]1 is shown in Additional file 1: Fig. S1(a). The HPLC purification was performed using a Phenomenex Gemini C18 Semi-preparative column (5 µm, 250 × 10 mm) equipped with UV (254 nm) and radioactivity detectors by eluting with an isocratic mobile phase composed of 65% MeCN, 5% MeOH, 30% water, and 0.1% triethylamine (NEt3) at a flow rate of 5 mL/min. The radioactive [^18F]1 was collected between 16 and 17 min and was well-separated from the rest of the UV and radioactivity peaks. After the purification, the collected product was formulated in 10% EtOH/0.9% saline containing 0.5% sodium ascorbate. The total radiosynthesis time was 100 min at the EOS. The final reformulated aliquot was further characterized by HPLC analysis using a Phenomenex Gemini C18 analytical column (5 µm, 250 × 4.6 mm) equipped with UV and radioactivity detectors by eluting with the same HPLC solvent at a flow rate of 1 mL/min. The radioactive peak was eluted between 15 and 17 min. […]

Setting [4] is: 1·HCl 5 mg/kg i.v. 5 min before tracer.
Setting [5] is: blocking study with 1·HCl 5 mg/kg i.v., stated for both groups.

Consider `CC[C@H]1CN(c2ncc(-c3nnco3)cc2Cl)CCN1C1CCN(Cc2ccc(Cl)cc2[18F])CC1` [[^18F]1], for which, at CXCR3 [1] (setting [4]), the “blocking effect in BAT (from AUC of TACs)” value was 45.9% and the “blocking effect in abdominal aorta (from AUC of TACs)” value worked out at 4.7%. In addition, the “standard uptake value (SUV), BAT region” value on CXCR3 [1] (setting [5]) is 1.2–1.5. In addition, on CXCR3 [2] (setting [4]), the “blocking effect in BAT (from AUC of TACs)” value came out at 23.4% and the “blocking effect in atherosclerotic abdominal aorta (from AUC of TACs)” value turned out to be 16.9%. Further, the “standard uptake value (SUV), BAT region” value on CXCR3 [2] (setting [5]) is on record as 1.2–1.5. In addition, the “time radiotracer is stable” value in series [3] was “more than 10 h”.
